The structures appear in SMILES notation.

DC50, Dmax and IC50 data for twelve compounds are collected here from patent publication US20240368194A1, “IRAK4 DEGRADATION AGENT, AND PREPARATION METHOD THEREFOR AND USE THEREOF” (SHANGHAI LEADINGTAC PHARMACEUTICAL CO. LTD., priority 2021, published 2024).

The target of experiment [1] is IRAK4 protein in THP-1 cells (Homo sapiens (Human), UniProt Q9NWZ3). The experiment is described as follows: Degradation of IRAK4 in THP-1 cells, human IRAK4 AlphaLISA assay. The class given is cell-based. The note with it: 24 h incubation. As for the experimental part:
THP-1 cells (Stem Cell Bank, Chinese Academy of Sciences) were inoculated onto a 24-well cell culture plate at 0.95 mL/well, with a cell density of 5×10^5 cells/well. The cell plate was incubated overnight in a 37° C., 5% carbon dioxide incubator, and 50 μL of a solution of a compound in dimethyl sulfoxide was added, such that the final concentration of the compound fell within the range of 0.03-3000 nM. After another 24 h of incubation, cells were collected into 1.5 mL centrifuge tubes and centrifuged at 1000 rpm at 4° C. for 5 min. The cell pellets were washed twice with 1×DPBS. The resuspended cells were lysed with 200 μL of lysis buffer (Western and IP cell lysis buffer (Beyotime), supplemented with 1 mM phenylmethylsulfonyl fluoride and protease inhibitor cocktail (Beyotime)), left to stand on ice for 30 mini, and then centrifuged at 14,000 g at 4° C. for 10 min. The supernatant samples were assayed by Western Blot for IRAK4 protein levels.
The above cell lysates were also tested for IRAK4 degradation using a human IRAK4 AlphaLISA assay kit (PerkinElmer, AL3117C). The method is specifically as follows: 2-μL test samples of cell lysate supernatant were transferred to a white 384-well plate (PerkinElmer, 6007299), and 4 μL of 5× anti-IRAK4 receptor beads (PerkinElmer, final concentration of 10 μg/mL) was then added. The plate was incubated at 23° C. for 30 min. Then 4 μL of 5× biotin-labeled anti-IRAK4 antibody (PerkinElmer, final concentration of 1 nM) was added, and the plate was incubated at 23° C. for 60 min. Finally, 10 μL of 2′ streptavidin-labeled donor beads (final concentration of 40 μg/mL) was added to each well, and the plate was incubated in the dark at 23° C. for 30 min. After the incubation was complete, AlphaLISA signal values were measured on a microplate reader EnVision (PerkinElmer, 2105) in the AlphaScreen standard mode, and IRAK4 concentrations were calculated from these signal values. Then a non-linear curve fitting of logarithmic concentration-inhibition rate was performed using GraphPad Prism 7, and the DC50 and Dmax values of the compound were obtained.
On the technique in general: Alpha assays give light when donor and acceptor beads are brought close together.

The target of another experiment is IRAK4 kinase (Homo sapiens (Human), UniProt Q9NWZ3). Briefly: IRAK4 kinase activity test (KinEASE-STK S1 HTRF kit). The experiment is classed as biochemical. The note with it: 2.5 nM IRAK4 kinase, 7 μM ATP, 37° C. 120 min. As for the experimental part:
Then 2.5 nM 1RAK4 kinase (Carna), 1 μM biotinylated polypeptide substrate (Cisbio) and 7 μM adenosine triphosphate (Sigma-Aldrich) were sequentially added, and the mixtures were incubated at 37° C. for 120 min. Subsequently, an anti-phosphoserine/threonine antibody (Cisbio) conjugated with a europium element compound and conjugated modified XL665 streptavidin (Cisbio) were added to the reaction systems to stop the reactions. After 1 h of incubation at room temperature, the fluorescence intensity of each well was measured at the excitation wavelength of 337 nm and the emission wavelengths of 620 nm and 665 nm with a microplate reader EnVision (PerkinElmer) in the HTRF mode, and Ratio values were calculated using the formula Ratio=(665 nm/620 nm)×[…]. The inhibition rate of the compound at each concentration was calculated by comparing the fluorescence intensity ratio with that of the control group. Then a non-linear curve fitting of logarithmic concentration-inhibition rate was performed using GraphPad Prism 7, and the IC50 value of the compound was obtained.
In general terms: In TR-FRET formats the signal depends on donor and acceptor labels being close together.

Sequence of IRAK4 protein in THP-1 cells (Q9NWZ3 whole entry): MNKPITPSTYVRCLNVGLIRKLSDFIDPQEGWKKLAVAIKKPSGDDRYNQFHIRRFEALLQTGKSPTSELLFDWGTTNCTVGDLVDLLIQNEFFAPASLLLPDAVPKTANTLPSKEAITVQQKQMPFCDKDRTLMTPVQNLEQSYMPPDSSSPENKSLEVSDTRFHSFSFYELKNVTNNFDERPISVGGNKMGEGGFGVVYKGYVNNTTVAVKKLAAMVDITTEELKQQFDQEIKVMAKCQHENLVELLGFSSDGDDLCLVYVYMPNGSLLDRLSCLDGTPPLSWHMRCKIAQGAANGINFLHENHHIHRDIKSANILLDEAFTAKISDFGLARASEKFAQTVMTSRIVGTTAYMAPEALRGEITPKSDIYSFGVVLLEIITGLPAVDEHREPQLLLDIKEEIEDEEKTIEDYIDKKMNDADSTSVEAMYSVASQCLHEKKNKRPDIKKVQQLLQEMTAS
Sequence of IRAK4 kinase (Q9NWZ3 whole entry): as above

As usually defined, the DC50 is the midpoint of the concentration-degradation curve. Low readings indicate a more potent degrader, high ones a less potent degrader. One may read the Dmax as the largest share of the target that was removed. High values mean deep degradation, low ones shallow degradation. One may read the IC50 as the midpoint of a concentration-inhibition curve. A high value points to a need for much substance. Take `COc1ccc(C(=O)N2CCC3(CCC(CN4CCC(n5cc(NC(=O)c6cnn7ccc(N8C[C@H]9C[C@@H]8CO9)nc67)c(C(F)F)n5)CC4)CC3)CC2)cc1N1CCC(=O)NC1=O` [Example 13, 5-((1R,4R)-2-oxa-5-azabicyclo[2.2.1]heptan-5-yl)-N-(3-(difluoromethyl)-1-(1-((3-(3-(2,4-dioxotetrahydropyrimidin-1(2H)-yl)-4-methoxybenzoyl)-3-azaspiro[5.5]undecan-9-yl)methyl)piperidin-4-yl)-1H-pyrazol-4-yl)pyrazolo[1,5-a]pyrimidine-3-carboxamide]: in experiment [1], half-maximal degradation (DC50) was put at 5.5 nM and the greatest degradation seen (Dmax) was found to be 84.4%. For the same compound, half-maximal inhibition on IRAK4 kinase (IC50) required 19.3 nM.
In experiment [1], `O=C1CCN(c2cc(C(=O)N3CCC4(CCC(CN5CCC(n6cc(NC(=O)c7cnn8ccc(N9CCOCC9)nc78)c(C(F)F)n6)CC5)CC4)CC3)ccc2Cl)C(=O)N1` [Example 15, N-(1-(1-((3-(4-chloro-3-(2,4-dioxotetrahydropyrimidin-1(2H)-yl)benzoyl)-3-azaspiro[5.5]undecan-9-yl)methyl)piperidin-4-yl)-3-(difluoromethyl)-1H-pyrazol-4-yl)-5-morpholinopyrazolo[1,5-a]pyrimidine-3-carboxamide] registered a DC50 of 2.5 nM and a Dmax of 92.1%. Moreover, at IRAK4 kinase, the IC50 was 14.2 nM.
Turning to `COc1ccc(C(=O)N2CCC3(CCC(CN4CCC(n5cc(NC(=O)c6cnn7ccc(N8CC9CCC(C8)O9)nc67)c(C(F)F)n5)CC4)CC3)CC2)cc1N1CCC(=O)NC1=O` [Example 16, 5-(8-oxa-3-azabicyclo[3.2.1]octan-3-yl)-N-(3-(difluoromethyl)-1-(1-((3-(3-(2,4-dioxotetrahydropyrimidin-1(2H)-yl)-4-methoxybenzoyl)-3-azaspiro[5.5]undecan-9-yl)methyl)piperidin-4-yl)-1H-pyrazol-4-yl)pyrazolo[1,5-a]pyrimidine-3-carboxamide], in experiment [1], half-maximal degradation (DC50) was put at 6.4 nM and the maximal degradation (Dmax) came out at 87.9%. This compound displayed an IC50 against IRAK4 kinase of 8.8 nM.
In experiment [1], `O=C1CCN(c2cc(C(=O)N3CCC(COCCN4CCC(n5cc(NC(=O)c6cnn7ccc(N8C[C@H]9C[C@@H]8CO9)nc67)c(C(F)F)n5)CC4)CC3)ccc2Cl)C(=O)N1` [Example 18, 5-((1R,4R)-2-oxa-5-azabicyclo[2.2.1]heptan-5-yl)-N-(1-(1-(2-((1-(4-chloro-3-(2,4-dioxotetrahydropyrimidin-1(2H)-yl)benzoyl)piperidin-4-yl)methoxy)ethyl)piperidin-4-yl)-3-(difluoromethyl)-1H-pyrazol-4-yl)pyrazolo[1,5-a]pyrimidine-3-carboxamide] returned a DC50 of 54.3 nM and a Dmax of 62.5%. For the same compound, 66.9 nM corresponded to half-maximal inhibition at IRAK4 kinase (IC50).
Taken in the same sequence, the figures for `O=C1CCN(c2cc(C(=O)N3CCC4(CCC(CN5CCC(n6cc(NC(=O)c7cnn8ccc(N9CCNCC9)nc78)c(C(F)F)n6)CC5)CC4)CC3)ccc2Cl)C(=O)N1` [Example 19, N-(1-(1-((3-(4-chloro-3-(2,4-dioxotetrahydropyrimidin-1(2H)-yl)benzoyl)-3-azaspiro[5.5]undecan-9-yl)methyl)piperidin-4-yl)-3-(difluoromethyl)-1H-pyrazol-4-yl)-5-(piperazin-1-yl)pyrazolo[1,5-a]pyrimidine-3-carboxamide] were 5.1 nM, 97.7% and 3.8 nM.
Taken in the same sequence, the figures for `CN(CCN1CCC(n2cc(NC(=O)c3cnn4ccc(N5C[C@H]6C[C@@H]5CO6)nc34)c(C(F)F)n2)CC1)CC1CCN(C(=O)c2ccc(Cl)c(N3CCC(=O)NC3=O)c2)CC1` [Example 20, 5-((1R,4R)-2-oxa-5-azabicyclo[2.2.1]heptan-5-yl)-N-(1-(1-(2-(((1-(4-chloro-3-(2,4-dioxotetrahydropyrimidin-1(2H)-yl)benzoyl)piperidin-4-yl)methyl)(methyl)amino)ethyl)piperidin-4-yl)-3-(difluoromethyl)-1H-pyrazol-4-yl)pyrazolo[1,5-a]pyrimidine-3-carboxamide] were 78.6 nM, 87% and 89.2 nM.
In experiment [1], `O=C1CCN(c2cc(C(=O)N3CCC(CCCCN4CCC(n5cc(NC(=O)c6cnn7ccc(N8C[C@H]9C[C@@H]8CO9)nc67)c(C(F)F)n5)CC4)CC3)ccc2Cl)C(=O)N1` [Example 21, 5-((1R,4R)-2-oxa-5-azabicyclo[2.2.1]heptan-5-yl)-N-(1-(1-(4-(1-(4-chloro-3-(2,4-dioxotetrahydropyrimidin-1(2H)-yl)benzoyl)piperidin-4-yl)butyl)piperidin-4-yl)-3-(difluoromethyl)-1H-pyrazol-4-yl)pyrazolo[1,5-a]pyrimidine-3-carboxamide] came in with a 50% degradation concentration (DC50) of 9.6 nM and a Dmax of 95.5%. On IRAK4 kinase, this compound yielded a half-maximal inhibitory concentration (IC50) of 9.9 nM.
Taken in the same sequence, the figures for `O=C1CCN(c2cc(C(=O)N3CCC(OCCCN4CCC(n5cc(NC(=O)c6cnn7ccc(N8C[C@H]9C[C@@H]8CO9)nc67)c(C(F)F)n5)CC4)CC3)ccc2Cl)C(=O)N1` [Example 23, 5-((1R,4R)-2-oxa-5-azabicyclo[2.2.1]heptan-5-yl)-N-(1-(1-(3-((1-(4-chloro-3-(2,4-dioxotetrahydropyrimidin-1(2H)-yl)benzoyl)piperidin-4-yl)oxy)propyl)piperidin-4-yl)-3-(difluoromethyl)-1H-pyrazol-4-yl)pyrazolo[1,5-a]pyrimidine-3-carboxamide] were 10.1 nM, 93.7% and 23 nM.
Taken in the same sequence, the figures for `O=C1CCN(c2cc(C(=O)N3CCC4(CCC(CN5CCC(n6cc(NC(=O)c7cnn8ccc(N9CCOCC9)nc78)c(C(F)F)n6)CC5)CC4)CC3)ccc2F)C(=O)N1` [Example 24, N-(3-(difluoromethyl)-1-(1-((3-(3-(2,4-dioxotetrahydropyrimidin-1(2H)-yl)-4-fluorobenzoyl)-3-azaspiro[5.5]undecan-9-yl)methyl)piperidin-4-yl)-1H-pyrazol-4-yl)-5-morpholinopyrazolo[1,5-a]pyrimidine-3-carboxamide] were 6.16 nM, 96.3% and 6.08 nM.
Taken in the same sequence, the figures for `O=C1CCN(c2cc(C(=O)N3CCC4(CCC(CN5CCC(n6cc(NC(=O)c7cnn8ccc(N9CCOCC9)nc78)c(C(F)F)n6)CC5)CC4)CC3)ccc2C(F)(F)F)C(=O)N1` [Example 25, N-(3-(difluoromethyl)-1-(1-((3-(3-(2,4-dioxotetrahydropyrimidin-1(2H)-yl)-4-(trifluoromethyl)benzoyl)-3-azaspiro[5.5]undecan-9-yl)methyl)piperidin-4-yl)-1H-pyrazol-4-yl)-5-morpholinopyrazolo[1,5-a]pyrimidine-3-carboxamide] were 62.1 nM, 97.8% and 14.1 nM.
In experiment [1], `COc1ccc(C(=O)N2CCC3(CCC(CCN4CCC(n5cc(NC(=O)c6cnn7ccc(N8CCOCC8)nc67)c(C(F)F)n5)CC4)CC3)CC2)cc1N1CCC(=O)NC1=O` [Example 28, N-(3-(difluoromethyl)-1-(1-(2-(3-(3-(2,4-dioxotetrahydropyrimidin-1(2H)-yl)-4-methoxybenzoyl)-3-azaspiro[5.5]undecan-9-yl)ethyl)piperidin-4-yl)-1H-pyrazol-4-yl)-5-morpholinopyrazolo[1,5-a]pyrimidine-3-carboxamide] registered a half-maximal degradation concentration (DC50) of 3.18 nM and a Dmax of 89.4%. At IRAK4 kinase, this compound came in with an IC50 of 12.9 nM.
Regarding `Cc1ccc(C(=O)N2CCC3(CCC(CN4CCC(n5cc(NC(=O)c6cnn7ccc(N8CCOCC8)nc67)c(C(F)F)n5)CC4)CC3)CC2)cc1N1CCC(=O)NC1=O` [Example 34, N-(3-(difluoromethyl)-1-(1-((3-(3-(2,4-dioxotetrahydropyrimidin-1(2H)-yl)-4-methylbenzoyl)-3-azaspiro[5.5]undecan-9-yl)methyl)piperidin-4-yl)-1H-pyrazol-4-yl)-5-morpholinopyrazolo[1,5-a]pyrimidine-3-carboxamide], in experiment [1], it took 3.55 nM to reach half-maximal degradation (DC50) and the Dmax came to 87.1%. Moreover, at IRAK4 kinase, the IC50 is 11 nM.
